Source: PubChem BioAssay (NCI)
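Five compound concentrations were applied to cells in 96-well plates for 48 hours; endpoints were derived by simple linear interpolation of the resulting dose-response curve. GI50 is the concentration that inhibits growth by half. TGI marks complete inhibition of growth.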

Experiments:
Assay in all cases: DTP human tumour cell line panel, 48 h
[1] = system: BT-549 breast
[2] = system: SK-MEL-28 melanoma
[3] = system: IGROV1 ovarian
[4] = system: MCF7 breast
[5] = system: NCI-H226 lung
[6] = system: MALME-3M melanoma
[7] = system: T-47D breast
[8] = system: SNB-19 CNS
[9] = system: TK-10 renal
[10] = system: SR leukemia
[11] = system: ACHN renal
[12] = system: DU-145 prostate
[13] = system: LOX IMVI melanoma
[14] = system: MDA-MB-231 breast
[15] = system: SK-OV-3 ovarian
[16] = system: HS 578T breast
[17] = system: HT29 colon
[18] = system: CCRF-CEM leukemia
[19] = system: NCI/ADR-RES ovarian
[20] = system: MDA-MB-435
[21] = system: SK-MEL-5 melanoma
[22] = system: A549 NSCLC
[23] = system: KM12 colon
[24] = system: SF-539 CNS
[25] = system: OVCAR-8 ovarian
[26] = system: PC-3 prostate
[27] = system: HCT-116 colon
[28] = system: HCC-2998 colon
[29] = system: SNB-75 CNS

In the case of `C=CCSSC1N=CNc2nc[nH]c21` (stereo not drawn), the GI50 [1] is reported as 8.78 µM, the TGI [1] is reported as > 76.4 µM and the GI50 [2] is reported as 27.2 µM. The TGI [2] was > 70.2 µM, the GI50 [3] was 2.12 µM and the TGI [3] was 11.2 µM. It also gave a GI50 [4] of 1.02 µM, a TGI [4] of 16.1 µM and a GI50 [5] of 12.2 µM. The TGI [5] was > 100 µM, the GI50 [6] was 3.61 µM and the TGI [6] was > 42.2 µM. The GI50 [7] was 1.39 µM, the TGI [7] was 26.5 µM and the GI50 [8] was > 71.6 µM. For the same compound, the TGI [8] was > 100 µM, the GI50 [9] was 0.708 µM and the TGI [9] was 23.8 µM. For the same compound, the GI50 [10] was 1.28 µM, the TGI [10] was > 100 µM and the GI50 [11] was 5.62 µM. The TGI [11] was > 46.3 µM, the GI50 [12] was 0.837 µM and the TGI [12] was > 47.5 µM. The GI50 [13] was 0.374 µM, the TGI [13] was 14.6 µM and the GI50 [14] was 4.84 µM. For the same compound, the TGI [14] was 36.2 µM, the GI50 [15] was 0.562 µM and the TGI [15] was > 88.6 µM. For the same compound, the GI50 [16] was 12.8 µM, the TGI [16] was > 100 µM and the GI50 [17] was 5.88 µM. For the same compound, the TGI [17] was 36.5 µM, the GI50 [18] was 0.871 µM and the TGI [18] was > 28.1 µM. For the same compound, the GI50 [19] was 4.46 µM, the TGI [19] was > 80.6 µM and the GI50 [20] was 2.15 µM. The TGI [20] was 39.9 µM, the GI50 [21] was 5.31 µM and the TGI [21] was 39.5 µM. For the same compound, the GI50 [22] was 30.5 µM, the TGI [22] was > 100 µM and the GI50 [23] was 4.42 µM. For the same compound, the TGI [23] was > 43.6 µM, the GI50 [24] was 2.6 µM and the TGI [24] was 32.4 µM. The GI50 [25] was 4 µM, the TGI [25] was 23.3 µM and the GI50 [26] was 5.56 µM. The TGI [26] was 28.7 µM, the GI50 [27] was 2.77 µM and the TGI [27] was 15.8 µM. For the same compound, the GI50 [28] was 2.82 µM, the TGI [28] was 23.8 µM and the GI50 [29] was 3.18 µM. For the same compound, the TGI [29] was > 90.9 µM.
